Test results: patent US20250002855A1, “METHODS FOR EXPANDING T CELLS FOR THE TREATMENT OF CANCER AND RELATED MALIGNANCIES” (Immatics US, Inc., priority 2020, published 2025)

What was measured:
[1] = tested on: tumor-infiltrating lymphocytes; conditions: in the presence of IL-21; after 2 weeks of culture; cited from earlier work
γδ T cells = experiment: δ1 and δ2 populations by flow cytometry; type: cell-based, human; conditions: Day 21; culture without vs with zoledronate (5 μM)
Description: Cells were harvested on Day 21 and analyzed by flow cytometry to determine δ1 and δ2 populations.
The presence of δ1 cells as a percentage of live cells is shown for two donors in FIG. 18A & 18B.

Structure (SMILES)	Tcm αβ T cells (CD28+CD62L+) [1]	δ1 and δ2 populations (γδ T cells)
O=C(CCCCCCC(=O)Nc1ccccc1)NO [SAHA, suberoylanilide hydroxamic acid]	increase Tcm αβ T cells	–
O=P(O)(O)C(O)(Cn1ccnc1)P(=O)(O)O [zoledronate]	–	lack of zoledronate in the culture results in a polyclonal population
